According to patent US20240317762A1, “PHTHALAZINONE-BASED PARP-1 INHIBITORS” (Oregon Health & Science University, priority 2021, published 2024):

Assays:
[1] = target: R878A PARP-1 (Homo sapiens, UniProt P09874, R878A); test: fluorescence polarization DNA competition and affinity assays, R878A mutant; assay type: binding; conditions: with AZ0108
Procedure: FIG. 4B) Helical domain (pink cartoon) movement observed during the simulation, the red arrows indicate length and direction of movement. FIG. 4C) The residue-residue distance observed between the Ca atoms R878-D770 and Y889-V758, the increased distance sampling corresponds to the helical domain movement. FIG. 4D) PARP-1 WT, D770A, or R878A (40 nM) was incubated with a dumbbell DNA probe carrying an internal FAM group and a central nick at 20 nM with or without compound (25 μM) for 30 minutes. An unlabeled competitor was added and the decrease in fluorescence polarization was measured across time. FIG. 4E) The Kd of PARP-1 WT, D770A, or R878A for a DNA dumbbell probe containing a central nick (5 nM) was measured in a fluorescence polarization assay with and without inhibitor (5 μM). Error bars represent Standard Error of the Mean (SEM) (n=3).

[2] = target: T1, PARP-1 (Homo sapiens, UniProt P09874); test: in-cell competition labeling with ad-olaparib photoaffinity probe; assay type: cell-based
T1 sequence (P09874 whole entry): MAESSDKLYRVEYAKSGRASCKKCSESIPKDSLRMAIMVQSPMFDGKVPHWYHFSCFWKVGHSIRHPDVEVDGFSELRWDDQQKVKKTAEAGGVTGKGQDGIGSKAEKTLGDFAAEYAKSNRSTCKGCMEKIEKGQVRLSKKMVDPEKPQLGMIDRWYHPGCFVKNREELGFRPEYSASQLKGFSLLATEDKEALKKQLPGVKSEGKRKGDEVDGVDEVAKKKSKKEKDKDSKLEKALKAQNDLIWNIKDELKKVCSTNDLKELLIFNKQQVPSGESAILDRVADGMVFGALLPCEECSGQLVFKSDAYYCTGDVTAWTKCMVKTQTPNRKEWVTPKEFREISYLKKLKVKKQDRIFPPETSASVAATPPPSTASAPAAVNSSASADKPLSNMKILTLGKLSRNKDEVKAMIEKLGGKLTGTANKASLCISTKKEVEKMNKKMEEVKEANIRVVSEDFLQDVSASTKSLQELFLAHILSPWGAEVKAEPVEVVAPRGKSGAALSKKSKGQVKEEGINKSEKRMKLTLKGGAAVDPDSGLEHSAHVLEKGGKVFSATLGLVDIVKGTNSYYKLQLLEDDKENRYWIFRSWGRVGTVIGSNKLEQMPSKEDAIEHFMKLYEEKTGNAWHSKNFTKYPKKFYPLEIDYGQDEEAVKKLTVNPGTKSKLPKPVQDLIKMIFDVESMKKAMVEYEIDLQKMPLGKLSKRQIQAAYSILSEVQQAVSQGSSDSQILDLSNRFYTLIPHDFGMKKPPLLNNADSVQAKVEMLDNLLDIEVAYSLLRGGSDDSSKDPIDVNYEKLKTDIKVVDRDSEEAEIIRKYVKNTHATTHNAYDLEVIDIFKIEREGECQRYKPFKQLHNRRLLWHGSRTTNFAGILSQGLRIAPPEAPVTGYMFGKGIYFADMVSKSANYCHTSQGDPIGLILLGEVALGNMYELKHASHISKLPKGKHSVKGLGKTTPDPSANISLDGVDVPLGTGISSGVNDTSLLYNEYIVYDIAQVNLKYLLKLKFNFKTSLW
Procedure: Photocrosslinking in intact cells. HEK293 CRL and PARP-1 KO cells were grown in DMEM for 2 days in a 60 mm dish for 2 days to reach 80-90% confluency. […] Cells were then washed once with PBS, covered with PBS and irradiated for 5 min in the RPR-100 Photochemical Reactor (Rayonet) equipped with 350 nm lamps at 4° C. Cells were lysed on ice in 1% SDS, 1% Triton X-100 and EDTA-free protease inhibitor cocktail (Roche) in PBS for 10 min and then probe sonicated to shear the nuclear DNA. Protein concentration was determined with Bio-Rad Protein assay. The lysate was diluted in PBS to a final Click reaction concentration of 2 mg/mL.
Click Chemistry. Reaction was started by mixing 30 μL of each sample with 15 μL of PBS based 3× Click reaction mixture containing (final concentrations): 100 μM Tris[(1-benzyl-1H-1,2,3triazol-4-yl)methyl]amine (TBTA, Click Chemistry Tools), 1 mM CuSO4, 40 μM tetramethylrhodamine (TAMRA)-azide (Click Chemistry Tools), 1 mM Tris(2-carboxyethyl)phosphine hydrochloride (TCEP, Thermo Fisher) and 15% tert-Butyl alcohol, and let to procced for 1 h at RT while gently shaking. Reactions were stopped by adding 4× Laemmli sample buffer and boiling at 95° C. for 5 min.
In gel fluorescence, western blotting and quantification. Samples were loaded to 8 or 10% SDS-polyacrylamide gels and run until the dye front left the gel. First, in-gel fluorescence was detected with ChemiDoc XRS+ (Biorad) using Rhodamine filter and then the proteins were transferred on nitrocellulose membrane, the membrane was blocked and probed for PARP-1 (1:3000) and alpha-tubulin (1:1000). Both antibodies were from cell signaling. Band intensities we quantified with ImageJ.
FIGS. 6A-6E. […] 0.1 μM ad-olaparib (chemical structure indicated in panel a) was added to the cells for 1 hour before undergoing a UV treatment for 5 minutes in cold PBS. Cells were lysed and sonicated in PBS (1% Triton X-100+1% SDS), clicked with TAMRA-azide and run out on SDS-PAGE. The gel was imaged for TAMRA and probed for PARP-1 (Bethyl Laboratories), and alpha-tubulin (X). FIGS. 6B, 6D) Quantification of western blot images. TAMRA or ADPr values are normalized to PARP-1 within each replicate and plotted as percentage compared to DMSO. Error bars indicate SEM (n=3-4). Statistical significance of off-rate calculated via multiple t-tests (p<0.05). […] Cells were subsequently treated with PARGi (10 μM) for 30 minutes, lysed using RIPA buffer, run out on SDS-PAGE, and probed for ADPr (Cell Signaling) and PARP-1 (Bethyl Laboratories). FIG. 6E) ES-8 cells were treated with indicated concentration of inhibitors for 72 hours before measuring cell viability using the CellTiter-Glo kit (Promega G7573). IC50 values were calculated using R statistical software.

[3] = target: T1, PARP-1; test: fluorescence polarization DNA binding affinity assay; conditions: 5 μM inhibitor
From the text: (§1) The full-length WT PARP-1 protein used in these assays was purified as described previously (30).

[4] = target: T1, PARP-1; test: in vitro fluorescence polarization DNA competition assay; conditions: 25 μM compound; PARP-1 40 nM; nicked dumbbell DNA probe 20 nM
From the text: as §1

R878A PARP-1, sequence (P09874 whole entry R878A, the tested form may be a part): as the sequence (P09874 whole entry) above, with R878A counted along it

- DNA binding to R878A PARP-1 [1]: similarly unaffected
- labeling of PARP-1 by ad-olaparib after pre-treatment ([2]; 10 μM inhibitor, 0.1 μM ad-olaparib): substantially blocked
- recovery of labeling of PARP-1 by ad-olaparib after washout ([2]; washout (3 h)): more than 2 fold
- increase of the affinity of PARP-1 for DNA ([3]; DNA dumbbell probe with central nick 5 nM): 4 fold
- exchange of the PARP-1:labled DNA complex with an unlabeled DNA competitor [4]: substantially reduced
Substance: (S)-4-(difluoro(3-(6-methyl-3-(trifluoromethyl)-5,6,7,8-tetrahydro-[1,2,4]triazolo[4,3-a]pyrazine-7-carbonyl)phenyl)methyl)phthalazin-1(2H)-one [AZ0108]
- effect on the affinity of PARP-1 for nicked DNA ([3]; compared to DMSO control): more pronounced effect on DNA binding to PARP-1
